Patent US8227240B2, “Systems for screening pharmaceutical chemicals” (The Washington University, priority 2001, dated 2012)
Read-outs that look alike come from different tables or passages of the source.

Tests used:
myosin ATPase = assay: Inhibition of contractile force activated by 20% FBS in ring sample; format: cell-based; conditions: after prior addition of 20% FBS; 2, 4, 20, and 40 μM BDM
Procedure: In a related experiment, FBS was added to activate the contractile force and then a myosin ATPase inhibitor was added.

[1] = system: chicken embryo fibroblasts (CEF's) tissue model; assay: Ring system: isometric force and dynamic stiffness of fibroblast populated matrices (FPM); format: cell-based; conditions: for IC50: serial additions, sigmoidal dependence
Procedure: Chicken embryo fibroblasts (CEF's) isolated from 11-day chicken embryos (Spafas Inc., Preston, Conn.) were maintained in Dulbecco's modified Eagle's medium (DMEM) supplemented with 10% fetal calf serum (FCS), penicillin at 50 units/ml, and streptomycin at 50 microgram/milliliter. The CEF's used to make tissue models were passaged once or twice from primary cultures. Monomeric collagen solubilized in 0.02 M acetic acid (Upstate Biotechnology Inc., Lake Placid, N.Y.) was neutralized at 4° C. with 0.1 N NaOH and mixed with concentrated DMEM stock to yield a final normal DMEM concentration. The fibroblasts suspended by trypsin (FIG. 1a) were mixed with the collagen solution (FIG. 1b), the cell suspension was poured into Teflon casting wells (FIG. 1c), and the wells were incubated at 37° C. with 5% CO2 (FIG. 1d). The collagen polymerized within 15-30 min and fibroblasts were captured within the hydrated collagen gel. The collagen gel formed a ring (3 mm thick, 3 cm diameter) between the inner wall of the cylindrical well and the central mandrel. While in culture the cells compressed this ring, reducing its volume about 10-fold (thickness 200-300 μm). The ring could then be removed from the mandrel (FIG. 1e and FIG. 1f) and mounted on the measuring instrument (FIG. 1g) as described below.
Mechanical measurements were carried out using a ring system. After two days of incubation (serum starvation for the final 12-16 hours), the mandrel was removed from the casting well and the tissue model-ring was removed gently from the mandrel. As shown in FIG. 1 the tissue model-ring was looped over the triangular hook connected to an isometric force transducer (Model 52-9545, Harvard Apparatus, South Natick, Mass.) by a fine, flexible gold chain. The ring was also looped over a horizontal bar connected to a sliding element moveable vertically and linearly by a stepper motor (P/N 1-19-3400 24V DC 1.8° step size, Haward Industry, St. Louis, Mo.) controlled by a micro-stepping driver (IM483 Intelligent Motion Systems) to measure stress and dynamic modulus of the sample. The micro-stepping driver was controlled by a personal computer with software which enabled the stepper motor to achieve smooth motion. An analog-to-digital signal converter (CIO-DAS1602/16, Computer Boards, Inc., Mansfield, Mass.) attached to the computer translated the voltage signal from the isometric force transducer to a digital signal for recording on a data recorder. The stepper motor controlled the stretching of the tissue. Force exerted by or on the tissue was transmitted to the force transducer by the gold chain.
The tissue sample was submerged in 50 ml Hepes-buffered DMEM (pH 7.4) in a thermo-regulated organ bath (Harvard Apparatus, South Natick, Mass.) maintained at 37° C. The two horizontal bars over which the ring was looped were initially set to hold the ring at its original contour length (corresponding to the circumference of the mandrel).
Typically, for stiffness measurements, the tissue model is subjected to a sequence of stretch cycles. In each cycle the tissue model is slowly stretched from 0 to 20% over 30 minutes and the tissue model is then returned at the same rate to its original length by actuation of the stepper motor. The resulting increase in contractile force during the first stretch is substantially larger than the contractile force in subsequent stretches (FIG. 2a). For each stretch after the first stretch there is a further small decrease in maximum contractile force, but the decrease becomes negligible after sufficient pre-stretching. The tissue models produced contractile force in response to the activation of fibroblasts by serum. This contractile force was abolished by disrupting the actin cytoskeleton with cytochalasin D (2 μM) (FIG. 2b).
The amplitude of the force response divided by the stretching amplitude corresponded to the dynamic stiffness of the sample subjected to a preselected sinusoidal length change. […]

[2] = system: rat embryo fibroblast derived cell line (REF52); assay: Force response of ring samples to physiological activators without stretching; format: cell-based; conditions: each drug added to a single tissue ring
Procedure: Ring samples made using a rat embryo fibroblast derived cell line (REF52) were prepared as described previously herein. The length of the tissue was maintained at a constant level during the test. Each of the drugs indicated in FIG. 15 was added to a single tissue ring.

[3] = system: smooth muscle cells (SMCs) isolated from rat aorta; assay: Tissue indentation device: acute time-dependent cell force (Example 18); format: cell-based; conditions: measured at 0, 1, 4 and 7 min; 50 nM Norepinephrine, 100 nM Endothelin, 10% FBS (FIG. 34)
Procedure: To test the system's ability to measure acute time-dependent response after treating the ETs, vasoconstrictors, norepinephrine and endothelin-1 and general constricting agent, fetal bovine serum (FBS) were added to bio-artificial tissues with smooth muscle cells (SMCs) isolated from rat aorta (10^6 SMCs per ml of bio-artificial tissue solution at bio-artificial tissue formation). The force generated by these bio-artificial tissues was measured at 0, 1, 4 and 7 min after adding the agents. […] The total acquisition time for 64 data points was 40 minutes.

chicken cardiac cells = assay: Force response of regular and miniaturized cardiac tissue models; format: cell-based; conditions: regular and miniaturized tissues, after calf serum
Procedure: The sample sizes are determined by the diameters of the mandrels and inner diameters of the wells. […] Miniaturized samples made using chick cardiac cells show twitch responses. Therefore this system can be used to test the effects of pharmaceutical candidates treating cardiac dysfunctions (Insert in FIG. 9b)

NIH 3T3 cells = assay: Stress relaxation of tension in connective tissue models; format: cell-based; conditions: different amounts
Procedure: The connective tissue models made using NIH 3T3 cells were treated with different amounts of the candidate pharmaceutical, Y27632, a Rho kinase specific inhibitor, which has been tested for reducing tension of smooth muscle strips such as rabbit aortic rings (Nature 239 (1997) 990-993). It is one of the promising drug candidates for treating hypertension in the future. Depending on the agonists used to stimulate the tissue contraction, the degree of reduction in tension is different (FIG. 21). […] Thus, the methods are useful for screening pharmaceutical candidates.

[4] = system: chicken embryo cardiac fibroblasts (CECFs); assay: Contractile response of ring samples to agonists, CECFs; format: cell-based
Excerpt: (§1) Profiles of contractile response to different agonists applied to ring samples were made using chicken embryo cardiac fibroblasts (CECFs) and rat adult cardiac fibroblasts (RACFs) and are shown in FIGS. 16(a)-(d) and FIGS. 16(e)-(h), respectively.
(§2) Time dependent force profiles after addition of FBS (20% v/v) were different depending on the pretreatment by different agonists.

[5] = system: rat adult cardiac fibroblasts (RACFs); assay: Contractile response of ring samples to agonists, RACFs; format: cell-based
Excerpt: as §1, §2

[6] = system: bio-artificial tissues (extracellular matrix, cellular contractility); assay: Tissue indentation device: mechanical changes in ECM, EA and pre-tension (Example 17); format: cell-based
Procedure: To verify the sensitivity for detecting changes in the mechanical properties of extracellular matrix (ECM) by the device, different concentrations of collagenase (1, 10, 100 U/ml) were administered to the different sets of bio-artificial tissues at time indicated by the arrow (b) in FIG. 33. All the bio-artificial tissues were treated with Endothelin-1 (50 nM, arrow a) to make sure the cells were responding to a contractile stimuli.
Experimental groups are separated into control (no treatment, filled circle), and treatments with 1, 10, 100 U/ml collagenase indicated by open circle, open triangle, and open square, respectively. After addition of 1 U/ml collagenase, the pre-tension, i.e. cellular contractility, was maintained compared to that of untreated control. […] While the collagenase digested the collagen matrix and affected ECM stiffness, the cell-ECM connection was slowly disrupted. Therefore, the cellular contractility was decreased especially with higher concentrations of collagenase. Nevertheless, the dataset indicated the measurement system sensitively detected incremental changes in ECM mechanics depending on the level of collagen degradation by the increasing concentrations of collagenase. At the 20 min time point (10 min after collagenase treatment), the apparent reduction of EA, but not pre-tension, indicates the EA was more sensitive to treatments affecting the extracellular matrix.

ring tissue model = assay: Contractile force developed by ring sample during tissue development (matrix remodeling and compression); format: cell-based
Procedure: The contractile force developed by the ring sample during matrix remodeling and compression can be measured by connecting the ring to the force measuring apparatus as described above within about 1-2 hours after collagen gelation. The cells begin to exert a force on the matrix after this time. Then the increase of force during tissue development (remodeling and compression) is observed over time.
Maximum force is typically reached within 15 to 20 hours. This process was also disrupted by several inhibitors as illustrated in FIGS. 18(b)-(d).

CC(=O)C(C)=NO [BDM, butane dione monoxime]
fully activated contractile force (myosin ATPase): reduced, in a dose dependent manner

C/C1=C/C(=O)O[C@@H]2C[C@@H](CC[C@H](C)/C=C\CC1)O[C@@](O)([C@@H]1CSC(=O)N1)C2 [LA-B, Latrunculin B]
concentration at which force and dynamic stiffness reached their minimum values [1]: ~600 nM | concentration range over which tension and stiffness decrease [1]: single decade | lowest concentration at which force and dynamic stiffness were significantly diminished [1]: 40 nM | effect on viscosity of the tissues (phase angle δ) ([1]; data not shown): relatively minor effect | IC50 ([1]; read-out: estimated half maximum concentration for reducing the force): 53 nM | IC50 ([1]; read-out: estimated half maximum concentration for reducing the stiffness): 68 nM

NC[C@H](O)c1ccc(O)c(O)c1 [Norepinephrine, norepinephrine]
force response of tissue ring at constant length [2]: reduced the initial base line force | cell force (active force) after adding the agent [3]: increased over time | time at which cell force reached its maximum value [3]: 7 min

C[C@@H](N)[C@H]1CC[C@H](C(=O)Nc2ccncc2)CC1 [Y27632]
force of cardiac tissue models (chicken cardiac cells): decreased | tension of connective tissue models (NIH 3T3 cells): reduces the tension

CC[C@H](C)[C@H](NC(=O)[C@H](CC(=O)O)NC(=O)[C@H](CC(C)C)NC(=O)[C@H](Cc1c[nH]cn1)NC(=O)[C@@H]1CSSC[C@H](N)C(=O)N[C@@H](CO)C(=O)N[C@H]2CSSC[C@H](NC(=O)[C@H](CCC(=O)O)NC(=O)[C@H](CCCCN)NC(=O)[C@H](CC(=O)O)NC(=O)[C@H](CCSC)NC(=O)[C@H](CC(C)C)NC(=O)[C@H](CO)NC(=O)[C@H](CO)NC2=O)C(=O)N[C@@H](C(C)C)C(=O)N[C@@H](Cc2ccc(O)cc2)C(=O)N[C@@H](Cc2ccccc2)C(=O)N1)C(=O)N[C@H](C(=O)N[C@@H](Cc1c[nH]c2ccccc12)C(=O)O)[C@@H](C)CC [endothelin, endothelin-1]
force response of tissue ring at constant length [2]: produce different forces | contractile response of ring [4]: contracted rings | contractile response of ring [5]: contracted rings | pre-tension (cellular contractility) ([6]; Endothelin-1 50 nM): increased immediately | cell force (active force) after adding the agent [3]: increased over time | time at which cell force reached its maximum value [3]: 7 min

CCO [ethanol]
force and stiffness of tissue models (tissue models; 10% solution of ethanol): reduces force and stiffness of tissue models significantly | level of baseline force maintained by the viable cells (tissue models; different dose of ethanol): decrease

CO[C@H]1[C@@H](OC)C[C@H](C)[C@@H](OC)C2=CC(=O)C=C(NC(=O)/C(C)=C/C=C\[C@H](OC)[C@@H](OC(N)=O)/C(C)=C/[C@@H]1C)C2=O [herbimycin A]
maximum force during ring tissue development (ring tissue model): reduces the maximum force

COC(=O)Nc1nc2ccc(C(=O)c3cccs3)cc2[nH]1 [nocodazole]
maximum force during ring tissue development (ring tissue model): reduces the maximum force

CNC[C@H](O)c1cccc(O)c1 [phenylephrine]
force response of tissue ring at constant length [2]: reduced the initial base line force

NC(=O)CC[C@@H]1NC(=O)[C@H](Cc2ccccc2)NC(=O)[C@H](Cc2ccc(O)cc2)NC(=O)[C@@H](N)CSSC[C@@H](C(=O)N2CCC[C@H]2C(=O)N[C@@H](CCCN=C(N)N)C(=O)NCC(N)=O)NC(=O)[C@H](CC(N)=O)NC1=O [vasopressin]
force response of tissue ring at constant length [2]: produce different forces | contractile response of ring [4]: did not response | contractile response of ring [5]: responded

EGF: epidermal growth factor (NSDSECPLSHDGYCLHDGVCMYIEALDKYACNCVVGYIGERCQYRDLKWWELR; Epidermal growth factor; UniProt P01133 971-1023, looked up)
contractile response of ring [4]: did not respond to any dose

Thrombin
force response of tissue ring at constant length [2]: produce different forces

angiotensin II (DRVYIHPF; Angiotensin-2; UniProt P01019 25-32, looked up) [agonist]
contractile response of ring [4]: did not response | contractile response of ring [5]: responded

collagenase
pre-tension (cellular contractility) compared to untreated control ([6]; 1 U/ml collagenase, after Endothelin-1 50 nM): maintained | EA (tissue stiffness) ([6]; 1 U/ml collagenase, about 10 min after treatment): began to be reduced | pre-tension (cellular contractility) ([6]; 10 U/ml collagenase, for ~10 min): didn't reduce the pre-tension significantly | drop of EA (tissue stiffness) ([6]; 100 U/ml collagenase, ~10 min after treatment): already significant

lysophosphatidic acid [LPA]
force response of tissue ring at constant length [2]: produce different forces
